Read-outs that look alike come from different tables or passages of the source.
How the values were obtained:
[1] = molecular target: T1, Cytosol Progesterone Receptor of the Estrogen-primed Immature Rabbit Uterus (Oryctolagus cuniculus, UniProt P06186); conditions: relative to progesterone = 100; literature; cited from earlier work
T1 construct: cytosol progesterone receptor of the estrogen-primed immature rabbit uterus; tissue Dutchland Laboratories, Inc., Denver, Pa (animals); host or cells: uterus cytosol of estradiol-treated immature female New Zealand White rabbits
T1 sequence (P06186 1-930): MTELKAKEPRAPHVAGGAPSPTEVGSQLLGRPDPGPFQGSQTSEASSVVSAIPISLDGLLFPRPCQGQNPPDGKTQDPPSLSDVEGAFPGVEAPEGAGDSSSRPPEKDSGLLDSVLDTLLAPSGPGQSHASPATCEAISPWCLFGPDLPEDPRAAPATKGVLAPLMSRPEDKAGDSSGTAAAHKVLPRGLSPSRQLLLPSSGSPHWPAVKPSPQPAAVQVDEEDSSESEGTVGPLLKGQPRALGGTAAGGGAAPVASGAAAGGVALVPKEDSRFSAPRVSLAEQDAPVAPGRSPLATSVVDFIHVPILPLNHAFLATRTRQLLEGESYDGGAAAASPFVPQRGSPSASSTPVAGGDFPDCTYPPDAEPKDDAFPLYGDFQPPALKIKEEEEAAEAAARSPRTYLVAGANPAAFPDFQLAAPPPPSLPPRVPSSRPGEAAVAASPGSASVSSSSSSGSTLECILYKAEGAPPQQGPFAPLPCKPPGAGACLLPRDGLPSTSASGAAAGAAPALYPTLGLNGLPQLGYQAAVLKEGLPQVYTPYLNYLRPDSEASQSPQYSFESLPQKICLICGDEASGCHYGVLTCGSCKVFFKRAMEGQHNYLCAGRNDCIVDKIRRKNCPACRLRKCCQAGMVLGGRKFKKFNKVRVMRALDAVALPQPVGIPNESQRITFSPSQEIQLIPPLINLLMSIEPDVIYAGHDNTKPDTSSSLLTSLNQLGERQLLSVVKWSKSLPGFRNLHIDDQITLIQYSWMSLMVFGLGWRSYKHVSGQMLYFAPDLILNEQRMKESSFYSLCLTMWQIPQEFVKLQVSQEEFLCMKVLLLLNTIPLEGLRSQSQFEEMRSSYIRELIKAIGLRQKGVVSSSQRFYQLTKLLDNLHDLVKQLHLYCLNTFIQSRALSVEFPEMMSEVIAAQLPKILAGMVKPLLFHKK

[2] = test system: endometrium of estrogen-primed ovariectomized or climacteric women; conditions: oral; cited from earlier work
[3] = molecular target: T1, Cytosol Progesterone Receptor of the Estrogen-primed Immature Rabbit Uterus; test: Relative binding affinity for progesterone receptor (competition with 3H-progesterone); set-up: species or system rabbit (New Zealand White); conditions: Assay 1; 16-18 hour incubation; progesterone = 100; 5α-dihydro-17α-ethynyl: lot 1
Protocol: RBA values recorded at 0° C. after short incubation times (e.g., 2 hr) mainly reflect differences in the association rate constants of the competing ligands, whereas those measured after long incubation times (e.g., 16 to 24 hr) and/or higher temperatures predominantly are influenced by differences in the dissociation rate constants of the competing ligands. RBA's determined after short incubation times primarily reflect the association of the competitor compared to the natural hormone. Conversely, RBA's measured after long incubation times reflect the dissociation rate of the competitor compared to the natural hormone.
The assay components are combined, allowed to equilibrate, and unbound radioactivity removed by charcoal adsorption.
Animal species. Immature female New Zealand White rabbits weighing 0.8 to 1.0 kg (Dutchland Laboratories, Inc., Denver, Pa).
Pretreatment. Subcutaneous treatment with 15 μg 17β-estradiol/0.6 ml sesame oil each morning (0830 to 0930 hr) for three days. Animals sacrificed 24 hr after final injection.
Tissue. Uterus; each uterus weighed about 1.0 g and two or three uteri were pooled for each assay.
Buffer. (A) 0.01M TES, pH 7.4, 1 mM EDTA, 0.012M thioglycerol and 30% glycerol for cytosol preparation and ^3 H-steroid, unlabeled hormone and compound solutions. (B) 0.01M TES, pH 7.4, 1 mM EDTA and 0.012M thioglycerol for charcoal solution.
Homogenization. Five or six 5-second bursts with 30 second cooling periods between bursts using Brinkman Polytron Pt. 10 at 3.5 rheostat setting.
Temperature. 0°-4° C. for all steps.
Centrifugation. 45,000 rpm for 1 hr, 50 Ti rotor, Beckman L8-80 ultracentrifuge.
Incubation. 16-18 hr at 4°-6° C.
Concentations. 1×10^-10 M to 1×10^-5 M (7 concentrations).
Method. Charcoal adsorption method used to remove unbound radioactivity. Five-tenths ml of dextran-coated charcoal (0.5% Norit A and 0.05% dextran T-70) added to all tubes except total radioactivity tubes (0.5 ml buffer [B] added), tubes vortexed 3-5 sec, allowed to sit for 10 minutes and centrifuged 10 minutes at 2000 rpm in Beckman TJ-6 centrifuge at 0°-4° C.
Data Interpretation. […] The relative binding affinity (RBA) of each compound was calculated by using the following equation. [formula] where

[4] = test system: estrogen-primed immature rabbits; conditions: cited from earlier work
[5] = test system: uterine endometrium of estrone-primed immature rabbits; test: Clauberg assay (progestational activity, McPhail); assay type: in vivo, rabbit (New Zealand White); conditions: oral; for McPhail Index (0-4) (X ± S.D.): 0 none, 4 maximal

| SMILES | RBA (Kontula et al. 1975) [1] | Threshold or effective dose, Kaufman Assay [2] | RBA [3] [%] | Threshold or effective dose, Clauberg Assay ([4]; oral) [mg/animal] | Threshold or effective dose, Clauberg Assay ([4]; s.c. (i.m.)) | Uterine Weight (X ± S.D.) ([5]; 5 μg/rabbit daily) [g] | McPhail Index (0-4) (X ± S.D.) ([5]; 5 μg/rabbit daily) | Uterine Weight (X ± S.D.) ([5]; 10 μg/rabbit daily) [g] | McPhail Index (0-4) (X ± S.D.) ([5]; 10 μg/rabbit daily) | Uterine Weight (X ± S.D.) ([5]; 25 μg/rabbit daily) [g] | McPhail Index (0-4) (X ± S.D.) ([5]; 25 μg/rabbit daily) | Uterine Weight (X ± S.D.) ([5]; 50 μg/rabbit daily) [g] | McPhail Index (0-4) (X ± S.D.) ([5]; 50 μg/rabbit daily) | Uterine Weight (X ± S.D.) ([5]; 100 μg/rabbit daily) [g] | McPhail Index (0-4) (X ± S.D.) ([5]; 100 μg/rabbit daily) | Uterine Weight (X ± S.D.) ([5]; 200 μg/rabbit daily) [g] | McPhail Index (0-4) (X ± S.D.) ([5]; 200 μg/rabbit daily) | Uterine Weight (X ± S.D.) ([5]; 400 μg/rabbit daily) [g] | McPhail Index (0-4) (X ± S.D.) ([5]; 400 μg/rabbit daily) |
| --- | --- | --- | --- | --- | --- | --- | --- | --- | --- | --- | --- | --- | --- | --- | --- | --- | --- | --- | --- |
| CC(=O)[C@H]1CC[C@H]2[C@@H]3CCC4=CC(=O)CC[C@@H]4[C@H]3CC[C@]12C [19-norprogesterone] | 258 |  |  |  |  |  |  |  |  |  |  |  |  |  |  |  |  |  |  |
| C#C[C@]1(O)CC[C@H]2[C@@H]3CCC4=CC(=O)CC[C@@H]4[C@H]3CC[C@@]21CC [Levonorgestrel, reference compound] |  | 6 mg/cycle | 111 | 0.03 | 0.01-0.03 mg/animal | 1.30 ± 0.49 | 0.08 ± 0.12 | 0.86 ± 0.04 | 0.04 ± 0.06 | 2.59 ± 0.81 | 3.71 ± 0.16 | 1.95 ± 0.41 | 2.92 ± 0.42 | 3.57 ± 1.08 | 3.90 ± 0.12 | 2.80 ± 0.14 | 4.00 ± 0.00 | 2.67 ± 0.80 | 3.70 ± 0.47 |
| C#C[C@]1(O)CC[C@H]2[C@@H]3CCC4=C(CCC(=O)C4)[C@H]3CC[C@@]21C [Norethynodrel] |  | 150-200 mg/cycle |  | 0.3 | 0.3 mg/animal |  |  |  |  |  |  |  |  |  |  |  |  |  |  |

Source: patent publication US4512986A, “Progrestationally active steroids” (priority 1983, dated 1985)
